Experimental findings from patent publication US11780893B2, “Kv1.3 blockers” (Zealand Pharma A/S, priority 2019, dated 2023) are described below.

Like-named read-outs stand apart in the source and are kept apart here. Bridge positions count the residues as written; N and C are the ends. Square brackets hold non-standard residues; d marks the D form. Peptide text beside a SMILES is read from it. Nle = CCCC[C@H](N)C(=O)O

For data set [1], the target named is T1, human Kv1.3 voltage-gated K+ channel (Homo sapiens, UniProt P22001).
T1 construct: host or cells: CHO-DUKX
T1 sequence (P22001 whole entry): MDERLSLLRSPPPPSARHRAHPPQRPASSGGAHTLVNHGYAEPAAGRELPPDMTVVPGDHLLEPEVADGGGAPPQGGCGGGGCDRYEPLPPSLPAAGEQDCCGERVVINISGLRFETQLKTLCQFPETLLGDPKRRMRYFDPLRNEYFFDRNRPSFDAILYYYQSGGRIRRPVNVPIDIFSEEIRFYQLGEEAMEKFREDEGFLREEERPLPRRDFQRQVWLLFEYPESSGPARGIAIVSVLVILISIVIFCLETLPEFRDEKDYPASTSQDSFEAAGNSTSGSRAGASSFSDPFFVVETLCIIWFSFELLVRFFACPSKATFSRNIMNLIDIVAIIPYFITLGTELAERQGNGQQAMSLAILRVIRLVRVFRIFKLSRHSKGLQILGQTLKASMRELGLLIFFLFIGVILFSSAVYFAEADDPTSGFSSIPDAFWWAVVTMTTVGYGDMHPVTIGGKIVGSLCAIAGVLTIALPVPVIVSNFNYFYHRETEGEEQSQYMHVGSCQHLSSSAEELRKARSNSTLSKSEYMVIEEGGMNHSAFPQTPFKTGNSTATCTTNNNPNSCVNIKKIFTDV
Kind of data set: cell-based. The note with it: inhibition of thallium flux, CHO-DUKX cells with human Kv1.3; read-out: IC50.

Data set [2] deals with T2, Kv1.1 (Homo sapiens, UniProt Q09470).
T2 construct: expressed in transfected cells; host or cells: Chinese Hamster Ovary (CHO)
T2 sequence (Q09470 whole entry): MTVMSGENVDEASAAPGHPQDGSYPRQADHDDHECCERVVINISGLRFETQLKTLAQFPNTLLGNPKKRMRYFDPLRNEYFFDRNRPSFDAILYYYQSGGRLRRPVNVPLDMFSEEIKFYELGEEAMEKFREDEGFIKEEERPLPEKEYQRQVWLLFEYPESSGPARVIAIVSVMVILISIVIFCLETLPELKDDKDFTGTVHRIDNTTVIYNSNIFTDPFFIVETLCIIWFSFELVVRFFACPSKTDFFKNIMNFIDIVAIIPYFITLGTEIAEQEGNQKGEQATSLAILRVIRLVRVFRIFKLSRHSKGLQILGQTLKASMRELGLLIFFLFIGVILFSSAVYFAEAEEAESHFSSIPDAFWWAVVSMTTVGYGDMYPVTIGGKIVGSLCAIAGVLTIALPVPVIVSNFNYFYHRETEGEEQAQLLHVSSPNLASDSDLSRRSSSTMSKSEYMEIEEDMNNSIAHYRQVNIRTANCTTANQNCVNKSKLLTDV
Kind of data set: cell-based. As to conditions: for IC50: CHO cells, whole-cell patch clamp, read-out: Potency IC50 (nM) Kv1.1; for Selectivity Kv1.1/Kv1.3: ratio IC50[Kv1.1]/IC50[Kv1.3].

In data set [3] the target is T3, Kv1.2 (Homo sapiens, UniProt P16389).
T3 construct: expressed in transfected cells; host or cells: Chinese Hamster Ovary (CHO)
T3 sequence (P16389 whole entry): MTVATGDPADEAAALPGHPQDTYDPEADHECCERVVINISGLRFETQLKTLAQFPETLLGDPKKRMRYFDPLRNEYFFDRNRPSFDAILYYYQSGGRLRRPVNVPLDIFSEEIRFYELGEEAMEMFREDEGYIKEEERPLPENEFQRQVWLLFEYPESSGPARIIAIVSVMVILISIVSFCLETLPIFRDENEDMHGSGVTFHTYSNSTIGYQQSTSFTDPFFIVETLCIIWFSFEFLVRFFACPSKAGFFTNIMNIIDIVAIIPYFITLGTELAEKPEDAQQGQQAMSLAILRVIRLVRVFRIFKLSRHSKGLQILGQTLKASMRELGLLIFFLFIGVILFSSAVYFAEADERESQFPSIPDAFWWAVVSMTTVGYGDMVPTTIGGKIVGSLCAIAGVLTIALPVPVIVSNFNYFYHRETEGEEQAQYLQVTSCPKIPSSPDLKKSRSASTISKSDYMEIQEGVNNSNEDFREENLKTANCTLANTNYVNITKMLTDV
The experiment in a line: cell-based. The note with it: CHO cells, whole-cell patch clamp; read-out: Potency IC50 (nM) Kv1.2.

Data set [4] addresses T4, Kv1.3 (Homo sapiens, UniProt P22001).
T4 construct: expressed in transfected cells; host or cells: Chinese Hamster Ovary (CHO)
Kind of data set: cell-based. The note with it: CHO cells, whole-cell patch clamp; read-out: Potency IC50 (nM) Kv1.3.

Data set [5] deals with T5, Kv1.6 (Homo sapiens, UniProt P17658).
T5 construct: expressed in transfected cells; host or cells: Chinese Hamster Ovary (CHO)
T5 sequence (P17658 whole entry): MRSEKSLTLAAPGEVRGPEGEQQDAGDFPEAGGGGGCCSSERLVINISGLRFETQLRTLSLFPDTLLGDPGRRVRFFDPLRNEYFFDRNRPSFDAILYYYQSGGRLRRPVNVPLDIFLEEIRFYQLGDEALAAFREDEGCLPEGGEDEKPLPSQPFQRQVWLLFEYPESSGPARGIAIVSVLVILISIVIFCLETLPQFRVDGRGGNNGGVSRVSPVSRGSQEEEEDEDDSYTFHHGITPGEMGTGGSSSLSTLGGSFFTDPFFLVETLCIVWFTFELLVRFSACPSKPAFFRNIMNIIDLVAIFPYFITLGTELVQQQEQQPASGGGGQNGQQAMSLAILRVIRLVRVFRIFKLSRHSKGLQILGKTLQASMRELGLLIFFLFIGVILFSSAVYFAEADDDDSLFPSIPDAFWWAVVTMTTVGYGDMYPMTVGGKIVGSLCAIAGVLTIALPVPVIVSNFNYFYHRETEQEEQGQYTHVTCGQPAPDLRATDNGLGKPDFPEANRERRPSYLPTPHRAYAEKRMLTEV
Kind of data set: cell-based. The note with it: for IC50: CHO cells, whole-cell patch clamp, read-out: Potency IC50 (nM) Kv1.6; for Selectivity Kv1.6/Kv1.3: ratio IC50[Kv1.6]/IC50[Kv1.3].

For data set [6], the system named is Human peripheral blood mononuclear cells (PBMCs). The experiment in a line: IL-2 release from anti-CD3 stimulated human PBMCs (Example 4b). The data set is classed as cell-based. The note with it: geometric mean, at least 6 replicates, read-out: anti-CD3 PBMC/IL-2 IC50. As for the experimental part: Human peripheral blood mononuclear cells (PBMCs) were used to assess the effects of Kv1.3 blockers on T-cell activation as determined by IL-2 release after stimulation with anti-CD3.
Human PBMCs were obtained from Precision for Medicine (Frederick, Md.). Cells from 5 donors were used. Plate-bound anti-CD3 was used to stimulate bulk T cells in the PBMC preparations. Briefly, 96-well plates were coated with anti-CD3 antibody for app. 16 hours at 5° C., using 50 μl of a 1 μg/ml anti-CD3 solution diluted in PBS. Thereafter the plates were washed twice.
Kv1.3 blockers were subsequently diluted in medium (RPMI 1640 with Glutamax-I containing, 10% v/v Fetal Bovine Serum, 1% v/v penicillin-streptomycin Solution) and added in a volume of 50 μl. The compounds indicated in Table 4b were used at concentrations ranging from […] to 1000 nM (half log dilutions, starting concentrations varying).
Finally, 50.000 PBMCs in the same medium were added to each well in a volume of 50 μl, giving a final volume of 100 μl per well. The plates were incubated for 20-24 hours in a 37° C./5% CO2 incubator. After centrifugation of the plates, 25 μl supernatant was transferred to IL-2 detection plates (MSD Human IL-2 Tissue Culture Kit, cat #K151AHB-2) and IL-2 was measures as described by the manufacturer (Meso Scale Discovery, Rockville, Md., USA).
Results are shown in Table 4b as geometric mean of IC50 values obtained from anti-CD3 stimulated human PBMC assays. All values derive from at least 6 replicates.

Data set [7] relates to delayed-type hypersensitivity (DTH) ear swelling response. The data set is classed as in vivo, rat. As to conditions: CsA 10 mg/kg per os, +/- SD.
Data set [8] concerns the target Rat whole blood (Rattus norvegicus, UniProt P15384).
A short description of data set [9]: in vivo. As to conditions: male, rat, sc, 70 nmol/kg.
Where [10] appears, read: Exp #1, Kv1.3 blocker 70 nmol/kg SC 24 hrs prior to KLH challenge.
The mark [11] stands for this setting: Exp #2, Kv1.3 blocker 70 nmol/kg SC 24 hrs prior to KLH challenge.
The mark [12] stands for this setting: Exp #3, Kv1.3 blocker 50 nmol/kg SC 24 hrs prior to KLH challenge.

T4 sequence (P22001 whole entry): as the sequence (P22001 whole entry) above
Sequence of Rat whole blood (P15384 whole entry): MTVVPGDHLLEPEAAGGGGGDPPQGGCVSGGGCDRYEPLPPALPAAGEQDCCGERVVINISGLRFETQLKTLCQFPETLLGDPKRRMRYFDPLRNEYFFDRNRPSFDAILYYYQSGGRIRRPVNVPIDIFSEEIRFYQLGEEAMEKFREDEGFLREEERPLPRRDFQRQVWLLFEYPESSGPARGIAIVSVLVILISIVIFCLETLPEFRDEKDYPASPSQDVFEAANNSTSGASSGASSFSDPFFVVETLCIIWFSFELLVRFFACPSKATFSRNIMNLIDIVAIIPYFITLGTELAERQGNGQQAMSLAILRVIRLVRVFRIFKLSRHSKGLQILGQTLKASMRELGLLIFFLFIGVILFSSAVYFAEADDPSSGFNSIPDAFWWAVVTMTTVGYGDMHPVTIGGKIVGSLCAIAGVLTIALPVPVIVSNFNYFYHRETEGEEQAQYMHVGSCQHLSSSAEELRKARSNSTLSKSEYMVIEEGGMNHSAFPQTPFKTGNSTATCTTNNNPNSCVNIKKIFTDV

Turning to `CC[C@H](C)[C@@H]1NC(=O)[C@H](C)NC(=O)[C@H](CCCCN)NC(=O)[C@H](CC(C)C)NC(=O)[C@@H]2CSSC[C@@H](C(=O)N[C@@H](Cc3ccc(O)cc3)C(=O)N3CCC[C@H]3C(=O)N[C@@H](CCCNC(=N)N)C(=O)O)NC(=O)[C@H](CCCCN)NC(=O)[C@@H]3CSSC[C@H](NC(=O)[C@H](CCC(=O)O)NC(=O)[C@H](C(C)C)NC(=O)[C@H](CO)NC(=O)[C@H](C)NC(=O)[C@H](CO)NC(=O)[C@@H](NC(=O)[C@H](CCCNC(=N)N)NC(=O)[C@H](CCSC)NC(=O)[C@H](CC(=O)O)NC(=O)[C@H](CCSC)NC(=O)[C@@H](N)CC(N)=O)CSSC[C@H](NC(=O)[C@H](CCCCN)NC(=O)CNC(=O)[C@H](Cc4ccccc4)NC(=O)[C@H]([C@@H](C)CC)NC(=O)[C@H](CO)NC(=O)CNC1=O)C(=O)N[C@@H](CCSC)C(=O)N[C@@H](CC(N)=O)C(=O)N[C@@H](CCCCN)C(=O)N[C@@H](CCCCN)C(=O)N3)C(=O)N[C@@H](CCCCN)C(=O)N[C@@H](CCC(N)=O)C(=O)N[C@@H](CCCCN)C(=O)N2` [Compound 3] (H-NMDMRCSASVECKQKCLKAIGSIFGKCMNKKCKCYPR-OH; disulfide 6-27, 12-32, 16-34), the IC50 in data set [1] is 0.3 nM; in [2], more than 3000 nM; in data set [3], 409 nM; in data set [4], 0.27 nM; in [5], more than 3000 nM; in data set [6], 0.06 nM. For the same compound, the IC50 in data set [8] was not above 1 nM. Besides, the “Selectivity Kv1.1/Kv1.3” value in data set [2] is more than 11300. In addition, the “Selectivity Kv1.6/Kv1.3” value in data set [5] is more than 11300. The figures for the “% inhibition of ear thickness (AUC of Δ ear thickness 0-48 hours)” value in [7] (setting [10]), in [7] (setting [11]) and in data set [7] (setting [12]) were 38.8 (+/−9.7) %, 25.0 (+/−12.5) % and 37.3 (+/−13.8) %, respectively. In addition, the AUC(0-inf) in data set [9] came to 0.0839 µM·h. Further, the concentration in data set [9] peaked (Cmax) at 36.9 nM. Further, the half-life in data set [9] is 59.4 min.

Consider `CCCC[C@H](NC(=O)[C@@H]1CCCN1)C(=O)N[C@@H](CC(=O)O)C(=O)N[C@@H](CCCC)C(=O)N[C@@H](CCCNC(=N)N)C(=O)N[C@H]1CSSC[C@@H]2NC(=O)[C@H](CCCCN)NC(=O)CNC(=O)[C@H](Cc3ccccc3)NC(=O)[C@H]([C@@H](C)CC)NC(=O)[C@H](CO)NC(=O)CNC(=O)[C@H]([C@@H](C)CC)NC(=O)[C@H](C)NC(=O)[C@H](CCCCN)NC(=O)[C@H](CC(C)C)NC(=O)[C@@H]3CSSC[C@@H](C(=O)N[C@@H](Cc4ccc(O)cc4)C(=O)N4CCC[C@H]4C(=O)N[C@@H](CCCNC(=N)N)C(N)=O)NC(=O)[C@H](CCCCN)NC(=O)[C@H](CSSC[C@H](NC(=O)[C@H](CCC(=O)O)NC(=O)[C@H](C(C)C)NC(=O)[C@H](CO)NC(=O)[C@H](C)NC(=O)[C@H](CO)NC1=O)C(=O)N[C@@H](CCCCN)C(=O)N[C@@H](CCC(N)=O)C(=O)N[C@@H](CCCCN)C(=O)N3)NC(=O)[C@H](CCCCN)NC(=O)[C@H](CCCCN)NC(=O)[C@H](CC(N)=O)NC(=O)[C@H](CCCC)NC2=O` [Compound 41] (H-P[Nle]D[Nle]RCSASVECKQKCLKAIGSIFGKC[Nle]NKKCKCYPR-NH2; disulfide 6-27, 12-32, 16-34), for which the IC50 in data set [1] was 0.15 nM; in data set [2], more than 3000 nM; in data set [3], 939 nM; in data set [4], 0.18 nM; in data set [5] it was more than 3000 nM; in data set [6], 0.03 nM. In [8], this compound showed an IC50 not above 1 nM. Moreover, the “Selectivity Kv1.1/Kv1.3” value in [2] is listed as more than 17100. In addition, the “Selectivity Kv1.6/Kv1.3” value in data set [5] is given as more than 17100. The “% inhibition of ear thickness (AUC of Δ ear thickness 0-48 hours)” value was 46.9 (+/−10.9) % in [7] (setting [10]); 27.7 (+/−11.5) % in [7] (setting [11]); 22.2 (+/−11.1) % in [7] (setting [12]); 41.9 (+/−12.5) % in [7] (Exp #4, Kv1.3 blocker 100 nmol/kg SC 24 hrs prior to KLH challenge).
